Data published in patent US11492385B2, “Long-acting co-agonists of the glucagon and GLP-1 receptors” (Merck Sharp & Dohme Corp., priority 2015, dated 2022).
Where two headings read alike, the source gives them in different places. Starred links: 1 amine or outer side, 2 acyl side, 3 side chain; linkers in the order of their positions; H or OH if unused. Non-standard residues stand in square brackets, D forms with d. Residues, ends and D or L forms follow the SMILES beside them. Groups on a side chain read outwards from the residue. *: point of attachment. Phe(4-CH2NH2) = NCc1ccc(C[C@H](N)C(=O)O)cc1; C18 diacid = O=C(O)CCCCCCCCCCCCCCCCC(=O)*; C17 diacid = O=C(O)CCCCCCCCCCCCCCCC(=O)*; αMeW = C[C@](N)(Cc1c[nH]c2ccccc12)C(=O)O; C16 diacid = O=C(O)CCCCCCCCCCCCCCC(=O)*; γGlu = O=C(O)[C@H](CCC(=O)[*:2])N[*:1]; Met(O2) = CS(=O)(=O)CC[C@H](N)C(=O)O; Palmitoyl = CCCCCCCCCCCCCCCC(=O)*; AEEA = NCCOCCOCC(=O)O; Aib = CC(C)(N)C(=O)O

Key:
human GCGR = target: T1, human GCGR (Homo sapiens, UniProt P47871); experiment: cAMP activity assay, cells expressing human GCGR; type: cell-based; settings: for EC50: cAMP production, cells expressing human GCGR, assay buffer with or without 20% human serum (not stated which); for hGCGR/hGLP1R (hTone): ratio of human GCGR EC50 to human GLP1R EC50
T1 construct: expressed in transfected cells; kept under Blasticidin and Hygromycin selection
Experimental: (§1) Activity of the peptides at the Glucagon receptor (GCGR) and GLP-1 receptor (GLP1R) was measured in a cAMP activity assay. Peptides were dissolved in 100% DMSO and serially diluted to generate 10 point titrations. The peptide solutions were then transferred into 384-well assay plates (150 nL/well). […] Production of cAMP was determined using […] kits (DiscoverX) following manufacturer protocol. The plates were incubated for overnight at room temperature in the dark. Luminescence was measured using an EnVision Multilabel plate reader (Perkin Elmer). Native GLP-1 and Glucagon (Bachem) are used as control peptides. EC50 values were calculated using uses a 4 parameter logistic fit based on the Levenberg-Marquardt algorithm.

human GLP1R = target: T2, human GLP1R (Homo sapiens, UniProt P43220); experiment: cAMP activity assay, cells expressing human GLP1R; type: cell-based; settings: cAMP production, assay buffer with or without 20% human serum (not stated which)
T2 construct: expressed in transfected cells; kept under Blasticidin and Hygromycin selection
Experimental: as §1

T1 sequence (P47871 26-477): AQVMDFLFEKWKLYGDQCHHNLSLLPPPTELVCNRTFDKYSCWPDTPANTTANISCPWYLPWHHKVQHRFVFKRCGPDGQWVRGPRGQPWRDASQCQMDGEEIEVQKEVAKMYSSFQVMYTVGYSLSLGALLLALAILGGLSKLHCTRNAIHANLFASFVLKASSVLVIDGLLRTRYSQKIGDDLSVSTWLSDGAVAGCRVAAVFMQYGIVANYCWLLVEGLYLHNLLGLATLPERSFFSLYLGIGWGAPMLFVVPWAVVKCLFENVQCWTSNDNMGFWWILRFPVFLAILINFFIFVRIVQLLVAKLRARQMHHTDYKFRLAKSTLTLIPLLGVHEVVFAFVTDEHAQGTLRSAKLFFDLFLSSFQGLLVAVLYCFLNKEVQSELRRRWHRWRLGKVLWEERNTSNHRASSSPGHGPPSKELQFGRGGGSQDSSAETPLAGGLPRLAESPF
T2 sequence (P43220 24-463): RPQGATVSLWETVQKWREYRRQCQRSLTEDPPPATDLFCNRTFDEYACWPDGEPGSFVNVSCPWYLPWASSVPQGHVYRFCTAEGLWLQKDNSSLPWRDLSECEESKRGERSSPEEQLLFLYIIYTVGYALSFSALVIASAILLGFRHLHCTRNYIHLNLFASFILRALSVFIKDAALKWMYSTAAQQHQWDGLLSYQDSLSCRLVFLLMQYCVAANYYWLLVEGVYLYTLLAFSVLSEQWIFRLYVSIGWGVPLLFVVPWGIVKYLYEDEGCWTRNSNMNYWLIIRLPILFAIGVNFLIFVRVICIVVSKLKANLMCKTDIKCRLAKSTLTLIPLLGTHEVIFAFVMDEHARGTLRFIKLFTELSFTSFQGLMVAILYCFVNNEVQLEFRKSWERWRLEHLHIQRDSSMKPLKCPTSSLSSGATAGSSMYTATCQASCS

Compound	EC50 (human GCGR; read-out: GCGR EC50 human) [nM]	hGCGR/hGLP1R (hTone) (human GCGR)	EC50 (human GLP1R) [nM]	EC50 (human GCGR; GCGR EC50 human) [nM]
CC(C)C[C@H](NC(=O)[C@H](Cc1ccc(O)cc1)NC(=O)[C@H](CCCCN)NC(=O)[C@H](CO)NC(=O)[C@H](Cc1ccc(CNC(=O)COCCOCCNC(=O)COCCOCCNC(=O)CC[C@H](NC(=O)CCCCCCCCCCCCCCC(=O)O)C(=O)O)cc1)NC(=O)[C@H](CC(=O)O)NC(=O)[C@H](CO)NC(=O)[C@@H](NC(=O)[C@H](Cc1ccccc1)NC(=O)[C@@H](NC(=O)CNC(=O)[C@H](CCC(N)=O)NC(=O)C(C)(C)NC(=O)[C@@H](N)Cc1c[nH]cn1)[C@@H](C)O)[C@@H](C)O)C(=O)N[C@@H](CC(=O)O)C(=O)N[C@@H](C)C(=O)N[C@@H](CCCNC(=N)N)C(=O)N[C@@H](C)C(=O)N[C@@H](C)C(=O)N[C@@H](CCC(N)=O)C(=O)N[C@@H](CC(=O)O)C(=O)N[C@@H](Cc1ccccc1)C(=O)N[C@H](C(=O)N[C@@H](CCC(N)=O)C(=O)N[C@@H](Cc1c[nH]c2ccccc12)C(=O)N[C@@H](CC(C)C)C(=O)N[C@@H](CCS(C)(=O)=O)C(=O)N[C@@H](CC(=O)O)C(=O)N[C@H](C(N)=O)[C@@H](C)O)C(C)C [compound 12] (H-H[Aib]QGTFTSD[Phe(4-CH2NH2)]([AEEA-AEEA-γGlu-C16 diacid])SKYLDARAAQDFVQWL[Met(O2)]DT-NH2; N-terminus assumed)	0.14	1.89	0.07	
CC(C)C[C@H](NC(=O)[C@H](Cc1ccc(O)cc1)NC(=O)[C@H](CCCCN)NC(=O)[C@H](CO)NC(=O)[C@H](Cc1ccc(O)cc1)NC(=O)[C@H](CC(=O)O)NC(=O)[C@H](CO)NC(=O)[C@@H](NC(=O)[C@H](Cc1ccccc1)NC(=O)[C@@H](NC(=O)CNC(=O)[C@H](CCC(N)=O)NC(=O)C(C)(C)NC(=O)[C@@H](N)Cc1c[nH]cn1)[C@@H](C)O)[C@@H](C)O)C(=O)N[C@@H](CC(=O)O)C(=O)N[C@@H](C)C(=O)N[C@@H](CCCNC(=N)N)C(=O)N[C@@H](C)C(=O)N[C@@H](C)C(=O)N[C@@H](CCC(N)=O)C(=O)N[C@@H](CCCCNC(=O)COCCOCCNC(=O)COCCOCCNC(=O)CC[C@H](NC(=O)CCCCCCCCCCCCCCC(=O)O)C(=O)O)C(=O)N[C@@H](Cc1ccccc1)C(=O)N[C@H](C(=O)N[C@@H](CCC(N)=O)C(=O)N[C@@H](Cc1c[nH]c2ccccc12)C(=O)N[C@@H](CC(C)C)C(=O)N[C@@H](CC(C)C)C(=O)N[C@@H](CC(=O)O)C(=O)N[C@H](C(N)=O)[C@@H](C)O)C(C)C [compound 18] (H-H[Aib]QGTFTSDYSKYLDARAAQK([AEEA-AEEA-γGlu-C16 diacid])FVQWLLDT-NH2)	0.07	2.19	0.03	
CC(C)C[C@H](NC(=O)[C@H](Cc1ccc(O)cc1)NC(=O)[C@H](CCCCN)NC(=O)[C@H](CO)NC(=O)[C@H](Cc1ccc(O)cc1)NC(=O)[C@H](CC(=O)O)NC(=O)[C@H](CO)NC(=O)[C@@H](NC(=O)[C@H](Cc1ccccc1)NC(=O)[C@@H](NC(=O)CNC(=O)[C@H](CCC(N)=O)NC(=O)C(C)(C)NC(=O)[C@@H](N)Cc1c[nH]cn1)[C@@H](C)O)[C@@H](C)O)C(=O)N[C@@H](CC(=O)O)C(=O)N[C@@H](C)C(=O)N[C@@H](CCCNC(=N)N)C(=O)N[C@@H](C)C(=O)N[C@@H](C)C(=O)N[C@@H](CCCCNC(=O)COCCOCCNC(=O)COCCOCCNC(=O)CC[C@H](NC(=O)CCCCCCCCCCCCCCCC(=O)O)C(=O)O)C(=O)N[C@@H](CC(=O)O)C(=O)N[C@@H](Cc1ccccc1)C(=O)N[C@H](C(=O)N[C@@H](CCC(N)=O)C(=O)N[C@@H](Cc1c[nH]c2ccccc12)C(=O)N[C@@H](CC(C)C)C(=O)N[C@@H](CCS(C)(=O)=O)C(=O)N[C@@H](CC(=O)O)C(=O)N[C@H](C(N)=O)[C@@H](C)O)C(C)C [compound 47] (H-H[Aib]QGTFTSDYSKYLDARAAK([AEEA-AEEA-γGlu-C17 diacid])DFVQWL[Met(O2)]DT-NH2)		1.30		
CC(C)C[C@H](NC(=O)[C@H](CC(C)C)NC(=O)[C@H](Cc1c[nH]c2ccccc12)NC(=O)[C@H](CCC(N)=O)NC(=O)[C@@H](NC(=O)[C@H](Cc1ccccc1)NC(=O)[C@H](CC(=O)O)NC(=O)[C@H](CCC(N)=O)NC(=O)[C@H](C)NC(=O)[C@H](C)NC(=O)[C@H](CCCNC(=N)N)NC(=O)C(C)(C)NC(=O)[C@H](CC(=O)O)NC(=O)[C@H](CC(C)C)NC(=O)[C@H](Cc1ccc(O)cc1)NC(=O)[C@H](CCCCN)NC(=O)[C@H](CO)NC(=O)[C@H](Cc1ccc(CNC(=O)COCCOCCNC(=O)COCCOCCNC(=O)CC[C@H](NC(=O)CCCCCCCCCCCCCCC(=O)O)C(=O)O)cc1)NC(=O)[C@H](CC(=O)O)NC(=O)[C@H](CO)NC(=O)[C@@H](NC(=O)[C@H](Cc1ccccc1)NC(=O)[C@@H](NC(=O)CNC(=O)[C@H](CCC(N)=O)NC(=O)C(C)(C)NC(=O)[C@@H](N)Cc1c[nH]cn1)[C@@H](C)O)[C@@H](C)O)C(C)C)C(=O)N[C@@H](C)C(=O)N[C@H](C(=O)N[C@@H](CCCCNC(=O)CC[C@H](N)C(=O)O)C(N)=O)[C@@H](C)O [compound 11] (H-H[Aib]QGTFTSD[Phe(4-CH2NH2)]([AEEA-AEEA-γGlu-C16 diacid])SKYLD[Aib]RAAQDFVQWLLATK(γGlu)-NH2)		4.15		1.03
CC(C)C[C@H](NC(=O)[C@H](Cc1ccc(O)cc1)NC(=O)[C@H](CCCCN)NC(=O)[C@H](CO)NC(=O)[C@H](Cc1ccc(O)cc1)NC(=O)[C@H](CC(=O)O)NC(=O)[C@H](CO)NC(=O)[C@@H](NC(=O)[C@H](Cc1ccccc1)NC(=O)[C@@H](NC(=O)CNC(=O)[C@H](CCC(N)=O)NC(=O)C(C)(C)NC(=O)[C@@H](N)Cc1c[nH]cn1)[C@@H](C)O)[C@@H](C)O)C(=O)N[C@@H](CC(=O)O)C(=O)N[C@@H](C)C(=O)N[C@@H](CCCNC(=N)N)C(=O)N[C@@H](C)C(=O)N[C@@H](C)C(=O)N[C@@H](CCCCNC(=O)COCCOCCNC(=O)COCCOCCNC(=O)CC[C@H](NC(=O)CCCCCCCCCCCCCCC(=O)O)C(=O)O)C(=O)N[C@@H](CC(=O)O)C(=O)N[C@@H](Cc1ccccc1)C(=O)N[C@H](C(=O)N[C@@H](CCC(N)=O)C(=O)N[C@@](C)(Cc1c[nH]c2ccccc12)C(=O)N[C@@H](CC(C)C)C(=O)N[C@@H](CCS(C)(=O)=O)C(=O)N[C@@H](CC(=O)O)C(=O)N[C@H](C(N)=O)[C@@H](C)O)C(C)C [compound 78] (H-H[Aib]QGTFTSDYSKYLDARAAK([AEEA-AEEA-γGlu-C16 diacid])DFVQ[αMeW]L[Met(O2)]DT-NH2)		3		
CCCCCCCCCCCCCCCC(=O)N[C@@H](CCC(=O)NCCOCCOCC(=O)NCCOCCOCC(=O)NCc1ccc(C[C@H](NC(=O)[C@H](CC(=O)O)NC(=O)[C@H](CO)NC(=O)[C@@H](NC(=O)[C@H](Cc2ccccc2)NC(=O)[C@@H](NC(=O)CNC(=O)[C@H](CCC(N)=O)NC(=O)C(C)(C)NC(=O)[C@@H](N)Cc2c[nH]cn2)[C@@H](C)O)[C@@H](C)O)C(=O)N[C@@H](CO)C(=O)N[C@@H](CCCCN)C(=O)N[C@@H](Cc2ccc(O)cc2)C(=O)N[C@@H](CC(C)C)C(=O)N[C@@H](CC(=O)O)C(=O)N[C@@H](C)C(=O)N[C@@H](CCCNC(=N)N)C(=O)N[C@@H](C)C(=O)N[C@@H](C)C(=O)N[C@@H](CCC(N)=O)C(=O)N[C@@H](CC(=O)O)C(=O)N[C@@H](Cc2ccccc2)C(=O)N[C@H](C(=O)N[C@@H](CCC(N)=O)C(=O)N[C@@H](Cc2c[nH]c3ccccc23)C(=O)N[C@@H](CC(C)C)C(=O)N[C@@H](CCS(C)(=O)=O)C(=O)N[C@@H](CC(=O)O)C(=O)N[C@H](C(N)=O)[C@@H](C)O)C(C)C)cc1)C(=O)O [compound 13] (H-H[Aib]QGTFTSD[Phe(4-CH2NH2)]([AEEA-AEEA-γGlu-Palmitoyl])SKYLDARAAQDFVQWL[Met(O2)]DT-NH2)		2.19		
CC(C)C[C@H](NC(=O)[C@H](Cc1ccc(O)cc1)NC(=O)[C@H](CCCCN)NC(=O)[C@H](CO)NC(=O)[C@H](Cc1ccc(O)cc1)NC(=O)[C@H](CC(=O)O)NC(=O)[C@H](CO)NC(=O)[C@@H](NC(=O)[C@H](Cc1ccccc1)NC(=O)[C@@H](NC(=O)CNC(=O)[C@H](CCC(N)=O)NC(=O)[C@@H](CO)NC(=O)[C@@H](N)Cc1c[nH]cn1)[C@@H](C)O)[C@@H](C)O)C(=O)N[C@@H](CC(=O)O)C(=O)N[C@@H](C)C(=O)N[C@@H](CCCNC(=N)N)C(=O)N[C@@H](C)C(=O)N[C@@H](C)C(=O)N[C@@H](CCC(N)=O)C(=O)N[C@@H](CCCCNC(=O)COCCOCCNC(=O)COCCOCCNC(=O)CC[C@H](NC(=O)CCCCCCCCCCCCCCCCC(=O)O)C(=O)O)C(=O)N[C@@H](Cc1ccccc1)C(=O)N[C@H](C(=O)N[C@@H](CCC(N)=O)C(=O)N[C@@H](Cc1c[nH]c2ccccc12)C(=O)N[C@@H](CC(C)C)C(=O)N[C@@H](CC(C)C)C(=O)N[C@@H](CC(=O)O)C(=O)N[C@H](C(N)=O)[C@@H](C)O)C(C)C [compound 21] (H-H[dS]QGTFTSDYSKYLDARAAQK([AEEA-AEEA-γGlu-C18 diacid])FVQWLLDT-NH2)		0.17		
